The test system of experiment [1] is primary culture hypothalamic neurons. Nature of the experiment: Activated-Caspase 3 expression in serum-deprived primary cultured hypothalamic neurons. To be noted: 48-hour serum deprivation; 50 nM TUF1[43-54] or 500 ng/ml anti-TUF1[43-54] IgG; preliminary qualitative analysis. The class given is cell-based, mouse. Here is the method: Gestational day 16.5 mouse embryos were collected from deeply anesthetized pregnant dam (i.p. injection of 10 mg/Kg Beuthanasia). Embryos were placed in HAM F12+10% Fetal Calf Serum (FCS)+1 mg/ml glucose. Whole brains were dissected and placed in a dish containing Phosphate Buffer Saline (PBS)+1 mg/ml glucose+10 mM HEPES. Hypothalami were dissected from embryonic brains and placed into a conical tube containing 2 ml HAM F12+10 mg/ml Glucose+10 mM HEPES. Cells were dissociated by pipetting and then centrifuged at 200×g for 5 minutes. Cells were suspended in culture medium (HAM F12+10% FCS+10 mg/ml glucose+10 mM HEPES+[…]) and plated at 200,000 cells/25 mm flask. Plated cells were incubated for four days in humidified incubator maintained at 37° C. and 5% CO2 (NuAire NU-8600, NuAire, Inc., Plymouth, Minn.).
To gain insight into the survival effect of TUF1[43-54] polypeptide, serum deprivation was used as a stressor. […] Cells were assessed for activated-Caspase 3 expression by immunocytochemistry after 48-hour incubation.
Cultured cells were rinsed with PBS (2×), fixed with 4% Paraformaldehyde (5 minutes) and permeabilized with PBS+0.1% Tween-20 (PBST). […] Excess antibody was removed by PBST and labeled cells were detected using IMMPACT DAB chromogen (Vector Laboratories, Inc., Burlingame, Calif.) per manufacturer's recommendation.

Experiment [2] has as its system Cortical neurons and glia. The experiment can be described thus: Glutamate-induced excitotoxicity in cultured cortical neurons. The class given is cell-based, mice. The settings on record: 500 μM glutamate, then 0.2-1.8 μM peptide for 24 hours. How it is done:
To assess the trophic effect of TUF1 peptide on primary culture neurons, we assayed the effect of TUF1 supplementation on glutamate-induced excitotoxicity in neuronal cultures. Cortical neurons and glia were cultured from newborn mice for seven days. Cultures were then treated with 500 μM glutamate (diluted in N2tox solution, Invitrogen Corp., Carlsbad, Calif.) and incubated at 37° C. for ten minutes. Glutamate was removed from cultures by two washes with EBSS media (Invitrogen Corp., Carlsbad, Calif.). Cultures were then incubated in EBSS media supplemented with 0.0 μM, 0.2 μM, 0.4 μM, 0.9 μM, or 1.8 μM TUF1 peptide for 24 hours. Surviving neurons from cultures were manually counted by Trypan Blue exclusion using an inverted microscope. Values are means±SD, n=6-8/group.

The subject of the next experiment is COS7 cells. The experiment can be described thus: COS7 cell survival following serum deprivation (Trypan blue uptake). The class given is cell-based. The settings on record: 5 nM peptide. Here is the method:
To gain insight into the binding of TUF1[43-54] peptide and p75^NTR, serum deprivation was used as a stressor to COS7 cells transfected with pCMV-SPORT6-p75 expression vector. COS7 cells were seeded at 15,000 cells/well in 12-well plates, transfected with 300 ng pCMV-eGFP (control) or 300 ng pCMV-SPORT6-p75, and incubated overnight. Cells were then incubated in serum-free medium or serum-free medium supplemented with 5 nM TUF1[43-54]. Cells were assessed for Trypan blue dye uptake at 24, 48, and 72 hours.
Immediately after removing growth medium, cells were rinsed with PBS and incubated in 100 μl 0.4% Trypan blue dye diluted in PBS. Images of cells were captured at 10× magnification using an inverted microscope equipped with a CCD camera. Trypan blue-positive cells were counted using Adobe Photoshop CS3 (Adobe Systems Inc., San Jose, Calif.). Graphs and statistics were performed using Prism Graphpad 4.0 (GraphPad Software Inc., San Diego, Calif.).

Entries after “also recorded” stand apart in the source; their conditions may differ. No end group written: not given here.

As for AYKSYVRALPLL [TUF1[43-54]], in experiment [1], the “cell death (activated-Caspase 3) following serum-deprivation” value is “fewer cell death”. The “neural excitotoxicity induced by glutamate” value in experiment [2] is recorded as “reduces neural excitotoxicity induced by glutamate”. For the same sequence, the “survival benefit of peptide in presence of p75^NTR” value in the experiment with COS7 cells (COS7 cells transfected with pCMV-SPORT6-p75, serum deprivation) was “removed the survival benefit”. In addition, the “cell survival / cell death following serum deprivation” value in the experiment with COS7 cells (Trypan blue-positive cells at 24, 48, 72 hours, control-transfected COS7 cells) is on record as “promotes cell survival; also recorded: reduces in vitro cell death following serum deprivation”.
